Publication PMC8406298, “Discovery of Fungus-Specific Targets and Inhibitors Using Chemical Phenotyping of Pathogenic Spore Germination” (mBio, 2021)

Legend:
[1] = tested on: Cryptococcus spores; test: Quantitative germination assay (QGA), automated microscopy of spore germination; type: cell-based, Cryptococcus neoformans serotype D (deneoformans); settings: for germination inhibition phenotype (chemical phenotype) in QGA: at phenotypic concentration
Protocol: In this automated microscopy-based assay, germination progression of spores is monitored as a function of changes in cell morphology over time (spores are small and oval; yeast are large and circular). Individual spores in a population (∼1 × 10^4 per sample) are measured to determine size (area) and shape (aspect ratio) from the onset of germination, and the data are collected for each cell over the time of germination (Fig. 1A).
Germination assays were modified from those described by Barkal et al. to introduce automation, increase throughput, and refine assay consistency ([12]). Briefly, 384-well plates (Thermo Scientific 142762) were loaded with 10^5 spores per well, and at 0 h, synthetic medium plus 2% dextrose (SD medium) containing the compounds of interest was added to the sample (final volume of 40 μl). All compounds were tested initially at 80 μM; however, concentrations were changed on a case-by-case basis for subsequent experiments. All assays and controls were performed with a final concentration of 0.8% DMSO (the compound solvent) unless specified otherwise. Spores were germinated at 30°C in a humidified chamber, and the same ∼5 × 10^3 cells were monitored every 2 h for 16 h. Imaging was performed on a Ti2 Nikon microscope, and each condition was visualized in a minimum of two individual wells with three fields of view acquired from each well. All images were analyzed as described previously based on cell shape and size using ImageJ. The population ratios of spores, intermediates, and yeast were determined. Error bars in plots are based on the variation among all fields of view acquired. Level of germination was determined by quantifying the decrease in the proportion of spores in a population, and rates were quantified by determining the change in this proportion over time. For all two-dimensional histograms, the x axis represents area from 0 μm^2 to 25 μm^2, and the y axis represents the aspect ratio from 0.4 to 1.
Cycloheximide (0.078 μM to 80 μM) (Dot Scientific, Inc. DSC81040-1), G418 (1.6 mM) (Fisher Scientific AAJ6267106), and puromycin (20 mM) (Dot Scientific, Inc. DSP33020-0.025) were tested with no DMSO (all were water soluble), whereas anisomycin (62.5 μM) (Sigma-Aldrich A9789-5MG) was tested in 2.5% DMSO.
Furcarbanil (80 μM) (Sigma-Aldrich T313122), rotenone (10 μM) (Fisher Scientific 501687383), and antimycin A (2.5 μM) (Santa Cruz Biotechnology, Inc. sc-202467A) were all tested in 0.8% DMSO, and TTFA (200 μM) (Sigma-Aldrich 88300-5G) was tested in 3% DMSO.

[2] = tested on: normal human dermal fibroblasts (NHDF) cells; test: Fibroblast cytotoxicity (CellTiter-Glo); type: cell-based; settings: 10 µM
Procedure, shortened: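 Normal human dermal fibroblasts, 1 × 10^3 per well, exposed to compounds at 10 μM for 72 h at 37°C. Viability read as ATP-dependent CellTiter-Glo luminescence. Dose-response runs titrated compounds from 80 μM to 0.5 μM in duplicate.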

[3] = tested on: Cryptococcus yeast (CHY3833 and CHY3836); test: Yeast replication secondary screen (OD600); type: cell-based, Cryptococcus neoformans serotype D (deneoformans); settings: 10 μM, 12 h at 30°C
Protocol: (ii) Yeast replication. CHY3833 and CHY3836 were each grown in YPD liquid overnight at 30°C to saturation and then resuspended in 0.5× YPD at an OD600 of 0.005. Strains were aliquoted into 384-well plates with inhibitors and grown for 12 h at 30°C at […] before OD600 readings were taken. Compounds that caused a >10% decrease in growth were considered yeast growth inhibitors.

Row | Structure (SMILES) | germination inhibition phenotype (chemical phenotype) in QGA [1] | phenotypic concentration (concentration showing the germination phenotype in QGA) [1] | Cytotoxicity: Relative Cell Viability (% of Negative Control) [2] | Yeast Inhibition: % Inhibition [3]
1 | COc1ccc(SCCCC(=O)Nc2ncnc3sccc23)cc1 [A8] | asynchrony | – | – | –
2 | CCc1ccccc1NC(=O)c1cc(C)oc1C [B1] | – | 80 µM | – | –
3 | CN[C@@H]1[C@@H](O)[C@@H](O[C@@H]2[C@@H](O)[C@H](O[C@H]3O[C@H]([C@@H](C)O)[C@@H](O)[C@H](O)[C@H]3N)[C@@H](N)C[C@H]2N)OC[C@]1(C)O [Geneticin, reference compound] | slow-down | – | – | –
4 | CC(C)(C)c1ccc(-c2csc(N)n2)cc1 [PubChem CID 673711] | bimodal | 5 µM | – | –
5 | Cc1nc(NC(=O)CCc2ccccc2)sc1C [PubChem CID 733834] | morphological variability | 40 µM | – | –
6 | Cc1ccccc1OCCn1cnc2ccccc21 [PubChem CID 749608] | slow down | 10 µM | – | –
7 | O=C(c1cc(-c2ccco2)on1)N1CCC(c2cccs2)CC1 [compound 71786870] | – | – | 90.1 % of Negative Control | 39.7%
8 | O=C(CSCc1ccccc1)N1CCC(c2cccs2)CC1 [compound 71786876] | – | – | 97.1 % of Negative Control | 12.2%
9 | O=C(CCSc1ccccc1)N1CCC(c2cccs2)CC1 [compound 71786877] | – | – | 89.8 % of Negative Control | 10.0%
10 | O=C(CSCc1ccccc1)N1CCC(c2ccsc2)CC1 [compound 71786985] | – | – | 101.7 % of Negative Control | 11.0%
11 | O=C(CSc1ccc(F)cc1)N1CCC(c2ccsc2)CC1 [compound 71786989] | – | – | 102.2 % of Negative Control | 16.0%
12 | O=C(Cc1cccc2ccccc12)N1CCC(c2ccsc2)CC1 [compound 71786990] | – | – | 94.3 % of Negative Control | 8.3%
13 | Cc1cc(C(=O)NCCC(O)c2cccc3ccccc23)c(C)o1 (centres unmarked) [compound 71787916] | – | – | 101.1 % of Negative Control | 28.8%
14 | O=C(Nc1nc2c(s1)CN(C(=O)C1(c3cccs3)CCCC1)CC2)c1ccoc1 [compound 71788301] | – | – | 91.4 % of Negative Control | 8.3%
15 | COc1cc(NS(=O)(=O)c2cccc(C(F)(F)F)c2)ncn1 [compound 71795763] | – | – | 90.4 % of Negative Control | -14.5%
16 | Cc1cccc2sc(OC3CN(C(=O)Cc4ccc(F)cc4)C3)nc12 [compound 71796286] | – | – | 99.2 % of Negative Control | 3.1%
17 | Cc1cc(C(=O)NCCc2nc(C3CC3)cc(C(F)(F)F)n2)c(C)o1 [compound 71797038] | – | – | 94.6 % of Negative Control | 47.0%
18 | O=C(NCCc1nc2c(c(C(F)(F)F)n1)CCCC2)c1ccc(F)cc1Cl [compound 71797126] | – | – | 106.4 % of Negative Control | 20.3%
19 | Cc1cc(C(=O)N2CCC(Oc3ncccc3Cl)CC2)c(C)o1 [compound 71798856] | – | – | 93.6 % of Negative Control | 54.8%
20 | O=C(COc1ccccc1F)N1CCC(Oc2ncccc2Br)CC1 [compound 71799471] | – | – | 101.4 % of Negative Control | 2.6%

Row | Structure (SMILES) | germination inhibition phenotype (chemical phenotype) in QGA [1] | phenotypic concentration (concentration showing the germination phenotype in QGA) [1] | Cytotoxicity: Relative Cell Viability (% of Negative Control) [2] | Yeast Inhibition: % Inhibition [3]
21 | O=C(Nc1cnc(Oc2ccccc2)nc1)c1cccc(Cl)c1 [compound 71799766] | – | – | 99.9 % of Negative Control | 7.9%
22 | O=C1CC(c2cccs2)CC(=O)N1Cc1csc(-c2ccccc2)n1 [compound 71801965] | – | – | 95.9 % of Negative Control | 3.9%
23 | Cc1cc(C)n(-c2nc(CCNC(=O)c3cc(C)oc3C)cs2)n1 [compound 71802096] | – | – | 103.6 % of Negative Control | 42.7%
24 | Cc1cc(C(=O)NCC#CCOc2cccc(C(F)(F)F)c2)c(C)o1 [compound 71803023] | – | – | 90.7 % of Negative Control | 44.0%
25 | O=S(=O)(NCC#CCOc1cccc(C(F)(F)F)c1)c1cccs1 [compound 71803055] | – | – | 63.8 % of Negative Control | 7.0%
26 | O=C(c1ccc(OC(F)(F)F)cc1)N(Cc1ccoc1)Cc1cccs1 [compound 71804107] | – | – | 94.0 % of Negative Control | 7.9%
27 | O=C(CCc1ccccc1Br)N1CCC(c2cccs2)CC1 [compound 71807060] | – | – | 100.7 % of Negative Control | 5.9%
28 | O=C(CCc1ccccc1Br)N1CCC(c2ccsc2)CC1 [compound 71807075] | – | – | 93.1 % of Negative Control | 9.6%
29 | O=C(Cc1ccc(F)cc1)N1CCN(c2nc(-c3ccsc3)cs2)CC1 [compound 71811049] | – | – | 99.2 % of Negative Control | 4.0%
30 | Cc1cc(C(=O)NCCn2nc(C(F)(F)F)c3c2CCCC3)c(C)o1 [compound 72718563] | – | – | 92.0 % of Negative Control | 79.7%
31 | Cl.Fc1ccc(Nc2nc(-c3ccoc3)cs2)cc1F [compound 72720194] | – | – | 70.6 % of Negative Control | 29.6%
32 | O=C(NC1CCN(c2nccs2)C1)c1nc2ccccc2s1 (centres unmarked) [compound 76149097] | – | – | 94.5 % of Negative Control | 10.4%
33 | O=C(C1CCC1)N1CCCCC(c2ccc(Cl)cc2)C1 (centres unmarked) [compound 76150259] | – | – | 108.6 % of Negative Control | -2.1%
34 | O=C(c1ccc2cc[nH]c2c1)N1CCCCC(c2ccc(Cl)cc2)C1 (centres unmarked) [compound 76150266] | – | – | 92.9 % of Negative Control | -14.0%
35 | O=C(c1ccc2nsnc2c1)N1CCSC(c2ccccc2Cl)CC1 (centres unmarked) [compound 76151751] | – | – | 97.8 % of Negative Control | 14.7%
36 | O=C(c1cc2ccccc2s1)N1CCC(c2ccsc2)CC1 [compound 91624614] | – | – | 96.6 % of Negative Control | -0.5%
37 | Cc1cc(C(=O)NCC2Cc3ccccc3CO2)c(C)o1 (centres unmarked) [compound 91626508] | – | – | 98.3 % of Negative Control | 53.9%
38 | CCCCc1nnc(NC(=O)c2cc(OC)ncn2)s1 [compound 91628556] | – | – | 88.7 % of Negative Control | 83.1%
39 | Cc1cc(C(=O)NCCc2nc3c(c(C(F)(F)F)n2)COCC3)c(C)o1 [compound 91629266] | – | – | 103.1 % of Negative Control | 31.5%
40 | O=C(NCc1ccnc(-c2cccs2)c1)c1nc2ccccc2s1 [compound 91630328] | – | – | 93.3 % of Negative Control | 3.0%
